Experimental data published in patent US9445594B2, “Molecules having certain pesticidal utilities, intermediates, compositions, and processes, related thereto” (priority 2014, dated 2016).

Columns and labels:
Assay type in all cases: in vivo
[1] = system: Beet Armyworm (Spodoptera exigua, LAPHEG) ("BAW"); experiment: Bioassays on BAW, 128-well diet tray assay; conditions: 168 h, second instar larvae, 50 μg/cm^2 on artificial diet, 25° C., five to seven days, average of eight wells, read-out: BAW % Control (or Mortality) rating
Procedure: (§1) Certain molecules disclosed in this document were tested against BAW, CEW, and CL using procedures described in the following examples. In the reporting of the results, the “BAW, CEW, & CL Rating Table” was used (See Table Section).
Bioassays on BAW were conducted using a 128-well diet tray assay. one to five second instar BAW larvae were placed in each well (3 mL) of the diet tray that had been previously filled with 1 mL of artificial diet to which 50 μg/cm^2 of the test compound (dissolved in 50 μL of 90:10 acetone-water mixture) had been applied (to each of eight wells) and then allowed to dry. Trays were covered with a clear self-adhesive cover and held at 25° C., 14:10 light-dark for five to seven days. Percent mortality was recorded for the larvae in each well; activity in the eight wells was then averaged. The results are indicated in the table entitled “Table ABC: Biological Results” (See Table Section).

[2] = system: Cabbage Looper (Trichoplusia ni, TRIPNI) ("CL"); experiment: Bioassays on CL, 128-well diet tray assay; conditions: 168 h, second instar larvae, 50 μg/cm^2 on artificial diet, 25° C., five to seven days, average of eight wells, read-out: CL % Control (or Mortality) rating
Procedure: as §1
Bioassays on CL were conducted using a 128-well diet tray assay. one to five second instar CL larvae were placed in each well (3 mL) of the diet tray that had been previously filled with 1 mL of artificial diet to which 50 μg/cm^2 of the test compound (dissolved in 50 μL of 90:10 acetone-water mixture) had been applied (to each of eight wells) and then allowed to dry. Trays were covered with a clear self-adhesive cover and held at 25° C., 14:10 light-dark for five to seven days. Percent mortality was recorded for the larvae in each well; activity in the eight wells was then averaged. The results are indicated in the table entitled “Table ABC: Biological Results” (See Table Section).

[3] = system: Yellow Fever Mosquito (Aedes aegypti, AEDSAE) ("YFM"); experiment: Bioassays on YFM, 96-well plate larval assay; conditions: about 1 day-old larvae, from 4000 ppm DMSO master plate diluted, room temperature, scored after 3 days
Procedure: Certain molecules disclosed in this document were tested against YFM using procedures described in the following paragraph. In the reporting of the results, the “YFM Rating Table” was used (See Table Section).
Master plates containing 400 μg of a molecule dissolved in 100 μL of dimethyl sulfoxide (DMSO) (equivalent to a 4000 ppm solution) are used. A master plate of assembled molecules contains 15 μL per well. To this plate, 135 μL of a 90:10 water:acetone mixture is added to each well. A robot (Biomek® NXP Laboratory Automation Workstation) is programmed to dispense 15 μL aspirations from the master plate into an empty 96-well shallow plate (“daughter” plate). There are 6 reps (“daughter” plates) created per master. The created daughter plates are then immediately infested with YFM larvae.
The day before plates are to be treated, mosquito eggs are placed in Millipore water containing liver powder to begin hatching (4 g. into 400 mL). After the daughter plates are created using the robot, they are infested with 220 μL of the liver powder/larval mosquito mixture (about 1 day-old larvae). After plates are infested with mosquito larvae, a non-evaporative lid is used to cover the plate to reduce drying. Plates are held at room temperature for 3 days prior to grading. After 3 days, each well is observed and scored based on mortality.

| Compound | mortality at 50 µg/cm2 [1] | mortality at 50 µg/cm2 [2] | YFM % Control (or Mortality) rating [3] |
| --- | --- | --- | --- |
| CCOc1cccc(NC(=O)Nc2ccc(-c3ncn(-c4ccc(OC(F)(F)F)cc4)n3)cc2)c1 [F39, 1-(3-ethoxyphenyl)-3-(4-(1-(4-(trifluoromethoxy)phenyl)-1H-1,2,4-triazol-3-yl)phenyl)urea] | 0% | 50 to 100% | D (No activity noticed in this bioassay) |
| O=C(Nc1ccc(-c2ncn(-c3ccc(OC(F)(F)C(F)(F)F)cc3)n2)cc1)Nc1ccccc1C1CC1 [F15, 1-(2-Cyclopropylphenyl)-3-(4-(1-(4-(perfluoroethoxy)phenyl)-1H-1,2,4-triazol-3-yl)phenyl)urea] | 50 to 100% | 50 to 100% | B (More than 0 - Less than 80) |
| FC(F)(F)Oc1ccc(-n2cnc(-c3ccc(NC(=S)Nc4ccccc4-c4nnco4)cc3)n2)cc1 [F44, 1-(2-(1,3,4-Oxadiazol-2-yl)phenyl)-3-(4-(1-(4-(trifluoromethoxy)phenyl)-1H-1,2,4-triazol-3-yl)phenyl)thiourea] | 0% | 0% | D (No activity noticed in this bioassay) |
| COc1ccccc1NC(=O)NCc1ccc(-c2ncn(-c3ccc(OC(F)(F)F)cc3)n2)cc1 [F106, 1-(2-Methoxyphenyl)-3-(4-(1-(4-(trifluoromethoxy)phenyl)-1H-1,2,4-triazol-3-yl)benzyl)urea] | 0% | 0% | D (No activity noticed in this bioassay) |
| O=C(NCCCc1ccc(-c2ncn(-c3ccc(OC(F)(F)F)cc3)n2)cc1)Nc1ccccc1Cl [F84, 1-(2-Chlorophenyl)-3-(3-(4-(1-(4-(trifluoromethoxy)phenyl)-1H-1,2,4-triazol-3-yl)phenyl)propyl)urea] | 50 to 100% | 50 to 100% | B (More than 0 - Less than 80) |
| FC(F)(F)Oc1ccc(-n2cnc(-c3ccc(NC(=S)Nc4ccccc4-c4ccccc4)cc3)n2)cc1 [F47, 1-([1,1′-Biphenyl]-2-yl)-3-(4-(1-(4-(trifluoromethoxy)phenyl)-1H-1,2,4-triazol-3-yl)phenyl)thiourea] | 0% | 50 to 100% | D (No activity noticed in this bioassay) |
| CCc1ccccc1NC(=O)NCCCc1ccc(-c2ncn(-c3ccc(OC(F)(F)F)cc3)n2)cc1 [F86, 1-(2-Ethylphenyl)-3-(3-(4-(1-(4-(trifluoromethoxy)phenyl)-1H-1,2,4-triazol-3-yl)phenyl)propyl)urea] | 50 to 100% | 50 to 100% | A (80-100) |
| COc1ccccc1NC(=O)NCCCc1ccc(-c2ncn(-c3ccc(OC(F)(F)F)cc3)n2)cc1 [F81, 1-(2-Methoxyphenyl)-3-(3-(4-(1-(4-(trifluoromethoxy)phenyl)-1H-1,2,4-triazol-3-yl)phenyl)propyl)urea] | 50 to 100% | 50 to 100% | B (More than 0 - Less than 80) |
| O=C(Nc1ccc(-c2ncn(-c3ccc(OC(F)(F)F)cc3)n2)cc1)Nc1ccccc1-c1cccnc1 [F62, 1-(2-(Pyridin-3-yl)phenyl)-3-(4-(1-(4-(trifluoromethoxy)phenyl)-1H-1,2,4-triazol-3-yl)phenyl)urea] | 50 to 100% | 50 to 100% | B (More than 0 - Less than 80) |
| O=C(Nc1ccc(-c2ncn(-c3ccc(OC(F)(F)C(F)(F)F)cc3)n2)cc1)Nc1ccccc1OC(F)(F)F [F1, 1-(4-(1-(4-(Perfluoroethoxy)phenyl)-1H-1,2,4-triazol-3-yl)phenyl)-3-(2-(trifluoromethoxy)phenyl)urea] | 0% | 50 to 100% | D (No activity noticed in this bioassay) |
| CC(C)c1ccccc1NC(=S)NCc1ccc(-c2ncn(-c3ccc(OC(F)(F)F)cc3)n2)cc1 [F45, 1-(2-isopropylphenyl)-3-(4-(1-(4-(trifluoromethoxy)phenyl)-1H-1,2,4-triazol-3-yl)benzyl)thiourea] | 0 to 50% | 50 to 100% | A (80-100) |
| Cc1ccccc1NC(=O)NCc1ccc(-c2ncn(-c3ccc(OC(F)(F)F)cc3)n2)cc1 [F100, 1-(o-Tolyl)-3-(4-(1-(4-(trifluoromethoxy)phenyl)-1H-1,2,4-triazol-3-yl)benzyl)urea] | 0% | 0% | D (No activity noticed in this bioassay) |
| O=C(NCCCc1ccc(-c2ncn(-c3ccc(OC(F)(F)F)cc3)n2)cc1)Nc1cccc(Cl)c1 [F85, 1-(3-Chlorophenyl)-3-(3-(4-(1-(4-(trifluoromethoxy)phenyl)-1H-1,2,4-triazol-3-yl)phenyl)propyl)urea] | 50 to 100% | 50 to 100% | A (80-100) |
| COc1cccc(NC(=O)NCCCc2ccc(-c3ncn(-c4ccc(OC(F)(F)F)cc4)n3)cc2)c1 [F80, 1-(3-Methoxyphenyl)-3-(3-(4-(1-(4-(trifluoromethoxy)phenyl)-1H-1,2,4-triazol-3-yl)phenyl)propyl)urea] | 50 to 100% | 50 to 100% | A (80-100) |
| FC(F)(F)Oc1ccc(-n2cnc(-c3ccc(NC(=S)Nc4ncccc4-c4ccccc4)cc3)n2)cc1 [F50, 1-(3-Phenylpyridin-2-yl)-3-(4-(1-(4-(trifluoromethoxy)phenyl)-1H-1,2,4-triazol-3-yl)phenyl)thiourea] | 0% | 0% | D (No activity noticed in this bioassay) |
| O=C(NCc1ccc(-c2ncn(-c3ccc(OC(F)(F)F)cc3)n2)cc1)Nc1ccccc1Cl [F104, 1-(2-Chlorophenyl)-3-(4-(1-(4-(trifluoromethoxy)phenyl)-1H-1,2,4-triazol-3-yl)benzyl)urea] | 50 to 100% | 0 to 50% | B (More than 0 - Less than 80) |
| FC(F)(F)Oc1ccc(-n2cnc(-c3ccc(NC(=S)Nc4ncccc4-c4cccnc4)cc3)n2)cc1 [F56, 1-([3,3′-Bipyridin]-2-yl)-3-(4-(1-(4-(trifluoromethoxy)phenyl)-1H-1,2,4-triazol-3-yl)phenyl)thiourea] | 0 to 50% | 50 to 100% | D (No activity noticed in this bioassay) |
| CC(C)c1ccccc1NC(=O)Nc1ccc(-c2ncn(-c3ccc(OC(F)(F)C(F)(F)F)cc3)n2)cc1 [F54, 1-(2-Isopropylphenyl)-3-(4-(1-(4-(perfluoroethoxy)phenyl)-1H-1,2,4-triazol-3-yl)phenyl)urea] | 50 to 100% | 50 to 100% | D (No activity noticed in this bioassay) |
| O=C(NCCCc1ccc(-c2ncn(-c3ccc(OC(F)(F)F)cc3)n2)cc1)Nc1ccc(Cl)cc1 [F79, 1-(4-Chlorophenyl)-3-(3-(4-(1-(4-(trifluoromethoxy)phenyl)-1H-1,2,4-triazol-3-yl)phenyl)propyl)urea] |  | 50 to 100% | D (No activity noticed in this bioassay) |
| Cc1ccc(NC(=O)NCCCc2ccc(-c3ncn(-c4ccc(OC(F)(F)F)cc4)n3)cc2)cc1 [F83, 1-(p-Tolyl)-3-(3-(4-(1-(4-(trifluoromethoxy)phenyl)-1H-1,2,4-triazol-3-yl)phenyl)propyl)urea] |  | 0% | D (No activity noticed in this bioassay) |
| COc1ccc(NC(=O)NCCCc2ccc(-c3ncn(-c4ccc(OC(F)(F)F)cc4)n3)cc2)cc1 [F82, 1-(4-Methoxyphenyl)-3-(3-(4-(1-(4-(trifluoromethoxy)phenyl)-1H-1,2,4-triazol-3-yl)phenyl)propyl)urea] |  | 0% | D (No activity noticed in this bioassay) |
